This assay addresses pre-miR-21. Kind of assay: Binding affinity measurement by intrinsic fluorescence. The note with it: WT pre-miR-21. The procedure:
Binding Affinity Measurements. Binding assays were completed as previously described.8 Briefly, WT pre-miR-21 (5′-[…]-3′) or a mutant pre-miR-21 with the A-bulge and U-bulges replaced with base pairs (5′-[…]-3′) was folded in 1× Assay Buffer (8 mM Na2HPO4, pH 7.0, 185 mM NaCl, and 1 mM EDTA) by heating at 95° C. for 1 min followed by cooling on ice for 10 min. After cooling, BSA was added to a final concentration of 40 μg/mL. RiboTAC 7 was then added to the solution to a final concentration of 0.5 μM. The RNA solution was serial diluted with 1× Assay Buffer supplemented with 40 μg/mL BSA and 0.5 μM of 7. The solutions were incubated in the dark for 30 min at room temperature before being transferred to a black 384-well plate (Corning 4514, low-volume, non-binding) Fluorescence intensity was measured using a Tecan infinite M1000 Pro (Gain: 100) with excitation wavelength of 380 nm and emission wavelength of 425 nm. Binding affinity was calculated using Equation 1, as previously described:8
where I and I0 are the measured fluorescence intensity of compound with or without RNA, respectively, Δε is the difference between the fluorescence intensity with infinite concentration of RNA versus without RNA, [FL]0 and [RNA]0 are the concentrations of small molecule and RNA, respectively, and Kd is the dissociation constant.

Consider `CNC(=O)[C@H](c1ccccc1)N(C)Cc1ccc(-c2cccc(-c3sccc3NC(=O)CCOCCOCCOCCC(=O)NCCN3CCN(c4ccc5nc(-c6c(N)c7c(F)cccc7[nH]c6=O)[nH]c5c4)CC3)c2)cc1` [RiboTAC 7, (S)—N-(2-(4-(2-(4-amino-5-fluoro-2-oxo-1,2-dihydroquinolin-3-yl)-1H-benzo[d]imidazol-6-yl)piperazin-1-yl)ethyl)-3-(2-(2-(3-((2-(4′-((methyl(2-(methylamino)-2-oxo-1-phenylethyl)amino)methyl)-[1,1′-biphenyl]-3-yl)thiophen-3-yl)amino)-3-oxopropoxy)ethoxy)ethoxy)propanamide], for which the affinity, expressed as Kd, was 4.6 ± 2.1 µM.

(Values after patent US20260167614A1, “IDENTIFICATION OF SMALL MOLECULES THAT RECRUIT AND ACTIVATE RNASE L” (UNIVERSITY OF FLORIDA RESEARCH FOUNDATION, INCORPORATED, priority 2022, published 2026).)
